The source of these data is US20140050779A1, “[…]-2 INHIBITORS AND USES THEREOF” (SINGAPORE HEALTH SERVICES PTE. LTD., priority 2011, published 2014).

Holding throughout (type): cell-based
For one data set, the system named is cultured SF cells. Nature of the data set: effect of TG-2 inhibitors on cultured scleral fibroblast growth (XCELLigence). As to the method: (§1) To test the effect of TG-2 inhibitors on cultured scleral fibroblast growth, cultured SF cells at passage 4 were treated with TG-2 inhibitors at baseline, 0.1, 1, 10 and 100 μM for 5 days. The SF cell growth was monitored by XCELLigence cell impedance.

The next data set concerns human SF. Described as above. The procedure: as §1
The subject of a further data set is mouse SF. The data set is described as above. The procedure: as §1
Data set [1] relates to TG-1. Nature of the data set: Western blot of TG proteins in mouse scleral fibroblasts after muscarinic agents. To be noted: 0.01-10 μM for 5 days. As to the method: (§2) All cells used in examples described herein were between passages 2-4. Passaged cells were plated at a concentration of 2×10^5/mL into 6 well plates containing DMEM with 10% FBS. The cells were seen to attach to the bottom of the culture wells after 4 hours. Old media was removed from wells and 1 mL of drug was added with fresh full medium and incubated at 37° C. Fresh drugs were replaced daily consecutively for the next 5 days to avoid oxidation. The drugs/media was removed and wells were washed twice with 1×PBS. 200 μl of RIPA lysis buffer was added per well and incubated for 5 minutes and cells were scrapped into an eppendorf tube. The cells were stored at −20° C. until sonication. The cells were sonicated on ice thrice at 20% output power for 5 seconds each time and rested 1 minute in between each turn. Cell debris was spun down at 12000 rpm for 20 minutes. The supernatant was poured into a new eppendorf tube and cell concentrations were determined using the Dc Protein assay Kit (Bio-Rad, MA). Passaged cells were plated at a concentration of 1×10^5 into 6 well plates containing DMEM with 10% FBS. The cells were seen to attach to the bottom of the culture wells after 4 hours. Freshly prepared muscarinic agents' at base line, 0.1, 1, 10 and 100 μM concentrations were added for 5 days (Table 2). The culture medium was removed and fresh medium containing the same muscarinic drug added every day to avoid drug changes such as atropine oxidation. Cell lysate was collected for relative quantitative (q) PCR and protein analysis at day 5.
(§3) The cells were lysed by sonification in 1×RIPA lysis buffer (santa cruz biotechnology, Sc-24948) with 10 μl PMSF solution, 10 μl sodium orthovanadate solution and 20 μl protease inhibitor cocktail solution. After centrifugation at 20,000×g at 4° C. for 20 minutes, and the supernatant collected. The protein content in the supernatants was measured using the DC Protein Assay kit (Bio-Rad, MA) following the manufacturer's instructions. Samples were stored at −80° C. until assayed.
(§4) The mouse and human scleral fibroblasts were treated with atropine or carbachol at 0.01, 0.1, 1, 5 and 10 μM concentrations for 5 days. Following 5 days of treatment, the total cellular protein was extracted from these cells and TG proteins detected via Western blot analysis.
(§5) Human and, mouse scleral fibroblast proteins in the supernatant were separated by SDS-PAGE, transferred to nitrocellulose membranes, blocked in 5% BSA in TBST (10 mM Tris-HCl [pH 8.0], 150 mM NaCl, and […] Tween-20) for 2 hours at room temperature, and incubated with the same anti-TG-2 antibody described herein at a dilution of 1:1000 and anti β-tubulin antibodies used as a positive control, for 1 hour at room temperature. The membranes were washed 3 times in TBST and incubated with HRP-conjugated secondary antibody (Chemicon International) at a dilution of 1:2500 for 1 hour at room temperature. Immunoreactive bands were visualized using the enhanced chemiluminescence method (GE Healthcare, Buckinghamshire, UK). The membrane was wrapped in plastic and placed against an X-ray film to expose for an appropriate length of time (30 seconds-5 minutes).
On the technique in general: A western blot detects proteins with antibodies after separation by electrophoresis.

Data set [2] concerns TG-3. Described as above. To be noted: 0.01-10 μM for 5 days. The procedure:
as §2, §3, §4, §5

Data set [3] deals with TG-2. The description is as above. To be noted: 0.01-10 μM for 5 days, Western blot. As to the method: as §2, §3, §4, §5
Data set [4] deals with TG-5. Nature of the data set: Western blot of TG proteins in human scleral fibroblasts after muscarinic agents. To be noted: 0.01-10 μM for 5 days.
Data set [5] relates to TG-5. Nature of the data set: Western blot of TG proteins in mouse scleral fibroblasts after muscarinic agents. To be noted: 0.01-10 μM for 5 days.
Data set [6] deals with TG-2. Nature of the data set: TG-2 colorimetric microassay (transamidase activity) in lysate of treated mouse scleral fibroblasts. To be noted: murine scleral derived fibroblasts, 0.01-10 μM for 5 days.
Data set [7] deals with TG-3. Nature of the data set: Western blot of TG proteins in human scleral fibroblasts after muscarinic agents. To be noted: 0.01-10 μM for 5 days.
The subject of data set [8] is TGase 2 (TGM-2) transcript. Nature of the data set: qPCR of TGases mRNA in mouse scleral fibroblasts after muscarinic agents. To be noted: 0.01-10 μM for 5 days, qPCR normalized to GAPDH. The procedure:
(§6) P2 cultured mouse scleral fibroblasts were treated with atropine or carbachol at different concentrations of 0.01 μM, 0.1 μM, […], 5 μM and 10 μM for 5 days. Following 5 days of treatment, the total RNA was extracted from these cells and TGases transcript level was quantified via qPCR analysis. Height of bars show the means of three independent samples and error bars represent standard deviation. Values are normalized against GAPDH house keeping genes.
Murine scleral derived fibroblasts were cultured to passage 2 and treated to exogenous atropine or carbachol at 0.01 μM, 0.1 μM, 1 μM, 5 μM and 10 μM for 5 days. Following 5 days of treatment, the total RNA was extracted from these cells and RT-qPCR performed to determine transcript levels of TGM-2. The levels were normalized to GAPDH internal control. […] Height of bars or symbols represents mean and error bars SD. *: p<0.05 and **: p<0.001.
All cells used in examples described herein were between passages 2-4. Passaged cells were plated at a concentration of 2×10^5/mL into 6 well plates containing DMEM with 10% FBS. The cells were seen to attach to the bottom of the culture wells after 4 hours. […] The supernatant was poured into a new eppendorf tube and cell concentrations were determined using the Dc Protein assay Kit (Bio-Rad, MA). […] Cell lysate was collected for relative quantitative (q) PCR and protein analysis at day 5. […]
In general terms: Quantitative PCR measures a nucleic acid by following its amplification.

In the next data set the test system is TGase 5 transcript. The description is as above. To be noted: 0.01-10 μM for 5 days, qPCR normalized to GAPDH. The procedure: as §6, §2
(§7) Total RNA was isolated from cultured human and mouse scleral fibroblasts using TRIzol reagent (Invitrogen life technologies, USA) in accordance with the manufacturer's instructions Chomczynski P, Sacchi N., “Single-step method of RNA isolation by acid guanidinium thiocyanate-phenol-chloroform extraction”, Anal. Biochem. 1987 April; 162(1):156-9. Genomic DNA was removed by digestion with DNase I (Amp Grade; Invitrogen-Gibco) for 15 minutes at room temperature. One microgram of total RNA was reverse-transcribed with random hexamers by using a first-strand cDNA synthesis kit (Invitrogen-Gibco). qPCR was performed in a 384-well plate format on an Roche 480 LightCycler Detection System (Roche Applied Science, Mannheim, Germany) with efficiency corrected software 4.0. PCR was performed using 50 ng of cDNA of each sample. The pre-validated hydrolysis probes for TG-2 were from human and mouse universal probe library (Roche, CA) and the primers for human and mouse are shown in Table 3. GAPDH Internal Standard (Roche) was used as an endogenous control. To standardize and evaluate scleral gene expression, aliquots of the same cDNA (50 ng) preparation were used as templates in all PCR reactions. The data was analyzed by comparative CT (MCT) method as previously described in Brink N, Szamel M, Young A R, Wittern K P, Bergemann J., “Comparative quantification of IL-1, IL-10, Il-10r, TNF and IL-7 mRNA levels in UV-irradiated human skin in vivo”, Inflamm Res. 2000 June; 49(6):290-6.

Another data set has as its system TGase 1 transcript. The data set is described as above. To be noted: 0.01-10 μM for 5 days, qPCR normalized to GAPDH. As to the method:
as §6, §2, §7

For another data set, the system named is TGase-3 transcript. The description is as above. To be noted: 0.01-10 μM for 5 days, qPCR normalized to GAPDH. As to the method: as §6, §2, §7
In data set [9] the test system is TG-1. Nature of the data set: Western blot of TG proteins in human scleral fibroblasts after muscarinic agents. To be noted: 0.01-10 μM for 5 days.

SMILES strings stand for the structures. “Also recorded” adds a separate entry of the source.

Take `CN(C)c1cccc2c(S(=O)(=O)NCCCCCN)cccc12` [MDC, Monodansyl caderverine]: in the data set on cultured SF cells, the “effect of the higher concentrations on SF cells” value is “cell death and morphological change”. Moreover, the figures for the “concentration at which effective on SF cell growth” value in the data set with human SF and in the data set with mouse SF were 10 µM and 50 µM, respectively.

Take `C[N+](C)(C)CCOC(N)=O` [carbachol]: the TG-1 protein level entry in the data set with TG-1 [1] and in the data set on TG-1 [9] was “the converse was true; also recorded: increased” throughout. Moreover, the TG-3 protein level result in the data set with TG-3 [2] and in the data set on TG-3 [7] was “the converse observed; also recorded: decreased” each time. Further, in the data set with TG-2 [3], the TG-2 protein level result is “increased; also recorded: opposite effect”. Moreover, the TG-5 protein level entry with TG-5 [4] and with TG-5 [5] was “the converse was true; also recorded: increased” in each case. The “transamidase (cross-linking) activity of TG-2” value in the data set with TG-2 [6] was “opposite effects”. Also, in data set [8], the “TGase 2 (TGM-2) transcript level” value is “opposite effect; also recorded: opposite findings”. Moreover, in the data set on TGase 5 transcript, the “TGase 5 transcript level” value is listed as “increased only by relatively higher concentrations”. The “TGase 1 transcript level” value with TGase 1 transcript is recorded as “increased only by relatively higher concentrations”. The TGase-3 transcript level result in the data set on TGase-3 transcript is given as “opposite findings”.
